# Source: publication PMC8584989 (International Journal of Molecular Sciences, 2021)
# Experiments:
# [1] = MTT proliferation / drug combination assay; conditions: human
# [2] = test system: ABC transporters and CYPs; assay: Gene expression (induction) studies by qRT-PCR; type: cell-based, human; conditions: 1.5 µM tepotinib; DI-related models, NSCLC cell lines and primary NSCLC cultures
# Protocol: Gene expression studies were performed employing quantitative real-time reverse transcription PCR (qRT-PCR) technique as described in our previous papers.
# The Caco-2, LS174T, A549, NCI-H1299 cells or primary lung cancer cells were seeded on 12-well plates with the densities of 50 × 10^4, 100 × 10^4, 24 × 10^4, 18 × 10^4 or 15 × 10^4 cells/well, respectively, and incubated for 24 h. […] Samples were collected at 24 h and 48 h intervals after drug treatment using TRI Reagent and then, mRNA isolation was performed. Agarose gel electrophoresis was used for the control of RNA quality and integrity and the RNA yield was monitored via NanoDrop ND-1000 spectrophotometer (American Laboratory Trading, East Lyme, CT, USA). RNA (1000 ng) was transcribed to cDNA using gb Reverse Transcription Kit. ABCB1, ABCG2 and ABCC1 mRNA expressions were detected with Master Mix and TaqMan-based qRT-PCR systems using QuantStudio 6 (Life Technologies, Carlsbad, CA, USA). […]
# In the case of the HepaFH3 hepatocytes, first, viability was analyzed with CellTiter-Glo 2.0 Viability Assay; the luminescence was measured using a microplate reader (FLUOstar Omega, BMG Labtech, Ortenberg, Germany). […] RNA integrity and quality was checked by agarose gel electrophoresis and the concentration assessed by NanoDrop. […]
# CYP2C9 = target: T1, CYP2C9 (Homo sapiens, UniProt P11712); assay: Vivid CYP450 Screening Kit, recombinant CYP2C9; type: in vitro ADME; conditions: recombinant enzyme; read-out: CYP2C9 inhibition IC50
# T1 construct: purchased Thermo Fisher Scientific
# Protocol: CYP inhibitory assay was performed using Vivid CYP450 screening kit as described previously. The kits consist of microsomal fraction containing human CYP isoforms, human CYP reductase and in several cases cytochrome b5. Experiments were performed following the manufacturer’s protocol on black 96-well plates using kinetic mode. […] Then, the master mix (CYP isoenzyme with an NADPH regeneration system in buffer) was added in each well and plate was pre-incubated for 10 min. The reaction was started with the mixture of NADP^+ and Vivid substrate and the fluorescence of samples was measured in 1 min interval for 60 min using an Infinite M200 Pro microplate reader (Tecan, Männedorf, Switzerland). Data from linear phase (15 min) were used for data evaluation.
# ABCC1 = ABCC1 (Homo sapiens, UniProt P33527); assay: MDCKII cellular monolayer transport assay; type: in vitro ADME; conditions: 1 µM tepotinib, 4 h
# Protocol: (§1) This assay was performed as described previously. […] The Transwells were incubated until full confluence for 7 days with media replacement every 2 days. Prior addition of tested drugs, inserts were washed with 1 × PBS on both apical and basal sides. […] Samples were then collected from the acceptor chambers at 0.5, 1, 2 and 4 h intervals. Cellular monolayers’ integrity was verified using fluorescein isothiocyanate-labeled dextran (MW = 40 kDa) accepting leakage up to 5% per hour.
# ABCB1 = ABCB1 (Homo sapiens, UniProt P08183); assay: MDCKII cellular monolayer transport assay; type: in vitro ADME; conditions: 1 µM tepotinib, 4 h, asymmetry aborted by 1 µM LY335979
# Protocol: as §1
# ABCG2 = target: T2, ABCG2 (Homo sapiens, UniProt Q9UNQ0); assay: MDCKII cellular monolayer transport assay; type: in vitro ADME; conditions: 1 µM tepotinib, 4 h
# T2 sequence (Q9UNQ0 1-655): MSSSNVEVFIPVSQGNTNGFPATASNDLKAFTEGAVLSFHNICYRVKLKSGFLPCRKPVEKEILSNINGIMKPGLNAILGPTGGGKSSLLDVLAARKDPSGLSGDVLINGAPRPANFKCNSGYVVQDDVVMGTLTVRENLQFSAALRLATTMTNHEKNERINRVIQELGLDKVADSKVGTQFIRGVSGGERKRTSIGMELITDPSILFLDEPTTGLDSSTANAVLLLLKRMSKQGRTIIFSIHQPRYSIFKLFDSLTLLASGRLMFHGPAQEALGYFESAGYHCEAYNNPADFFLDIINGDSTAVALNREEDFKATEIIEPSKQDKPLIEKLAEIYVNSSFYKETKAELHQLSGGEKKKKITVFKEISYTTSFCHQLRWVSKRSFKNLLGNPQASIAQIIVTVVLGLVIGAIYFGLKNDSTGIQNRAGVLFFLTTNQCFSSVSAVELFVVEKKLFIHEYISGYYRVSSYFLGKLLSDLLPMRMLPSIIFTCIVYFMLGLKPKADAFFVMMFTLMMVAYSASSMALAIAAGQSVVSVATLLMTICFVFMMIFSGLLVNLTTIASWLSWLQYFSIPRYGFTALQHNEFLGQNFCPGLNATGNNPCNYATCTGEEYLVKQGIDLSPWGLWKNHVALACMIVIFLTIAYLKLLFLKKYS
# Protocol: as §1
# Chain of ABCC1 (P33527 whole entry): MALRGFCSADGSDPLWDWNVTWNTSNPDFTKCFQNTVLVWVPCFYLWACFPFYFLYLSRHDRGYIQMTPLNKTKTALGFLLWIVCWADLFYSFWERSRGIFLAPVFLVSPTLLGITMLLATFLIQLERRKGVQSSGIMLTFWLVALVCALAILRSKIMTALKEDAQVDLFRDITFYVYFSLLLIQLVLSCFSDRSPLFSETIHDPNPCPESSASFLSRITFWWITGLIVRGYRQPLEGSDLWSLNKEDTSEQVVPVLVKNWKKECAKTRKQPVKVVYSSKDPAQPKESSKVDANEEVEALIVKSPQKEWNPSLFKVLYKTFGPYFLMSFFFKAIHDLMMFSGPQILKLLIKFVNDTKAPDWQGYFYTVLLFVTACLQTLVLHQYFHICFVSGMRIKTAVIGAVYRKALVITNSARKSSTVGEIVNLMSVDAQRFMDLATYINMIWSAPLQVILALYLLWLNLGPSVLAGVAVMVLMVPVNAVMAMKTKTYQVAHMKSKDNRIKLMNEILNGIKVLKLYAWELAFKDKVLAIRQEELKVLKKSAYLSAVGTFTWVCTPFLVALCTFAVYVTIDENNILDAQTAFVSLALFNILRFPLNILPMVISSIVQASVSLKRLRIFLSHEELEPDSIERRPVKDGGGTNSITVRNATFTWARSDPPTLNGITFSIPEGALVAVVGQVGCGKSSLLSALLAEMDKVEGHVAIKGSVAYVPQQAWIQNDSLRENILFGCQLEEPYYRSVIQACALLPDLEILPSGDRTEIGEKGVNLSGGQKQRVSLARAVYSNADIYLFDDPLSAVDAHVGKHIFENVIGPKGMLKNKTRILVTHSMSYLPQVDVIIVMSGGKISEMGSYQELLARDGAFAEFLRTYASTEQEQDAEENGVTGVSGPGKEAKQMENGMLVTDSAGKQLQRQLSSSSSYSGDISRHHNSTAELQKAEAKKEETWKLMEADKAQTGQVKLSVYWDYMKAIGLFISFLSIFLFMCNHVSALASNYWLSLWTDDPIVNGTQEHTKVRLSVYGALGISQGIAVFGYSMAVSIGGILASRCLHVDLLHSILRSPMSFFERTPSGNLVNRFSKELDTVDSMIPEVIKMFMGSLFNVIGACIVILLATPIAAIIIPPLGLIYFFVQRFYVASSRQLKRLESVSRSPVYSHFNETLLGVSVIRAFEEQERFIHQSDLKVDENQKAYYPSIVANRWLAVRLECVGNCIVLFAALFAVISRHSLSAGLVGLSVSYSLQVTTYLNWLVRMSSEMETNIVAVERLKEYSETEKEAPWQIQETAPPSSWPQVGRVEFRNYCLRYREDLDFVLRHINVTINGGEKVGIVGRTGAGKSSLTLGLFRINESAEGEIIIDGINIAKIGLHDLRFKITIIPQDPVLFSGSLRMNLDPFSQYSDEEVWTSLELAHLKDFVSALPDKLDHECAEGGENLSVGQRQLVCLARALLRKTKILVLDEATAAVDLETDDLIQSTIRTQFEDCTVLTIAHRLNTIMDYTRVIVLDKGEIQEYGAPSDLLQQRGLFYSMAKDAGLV
# T1 sequence (P11712 whole entry): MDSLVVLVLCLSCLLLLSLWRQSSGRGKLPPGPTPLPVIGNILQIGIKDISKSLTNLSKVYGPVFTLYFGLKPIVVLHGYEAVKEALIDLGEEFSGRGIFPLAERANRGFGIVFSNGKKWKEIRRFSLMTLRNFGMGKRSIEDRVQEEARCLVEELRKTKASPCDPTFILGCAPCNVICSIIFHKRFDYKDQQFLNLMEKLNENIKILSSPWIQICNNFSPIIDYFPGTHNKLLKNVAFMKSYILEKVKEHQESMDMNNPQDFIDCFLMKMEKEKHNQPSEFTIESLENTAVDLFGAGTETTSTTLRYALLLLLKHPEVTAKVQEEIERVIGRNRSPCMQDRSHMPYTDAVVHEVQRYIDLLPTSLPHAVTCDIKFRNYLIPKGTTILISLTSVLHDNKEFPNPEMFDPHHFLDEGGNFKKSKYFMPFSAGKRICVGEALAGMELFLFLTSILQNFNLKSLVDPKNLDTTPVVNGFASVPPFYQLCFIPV
# Chain of ABCB1 (P08183 whole entry): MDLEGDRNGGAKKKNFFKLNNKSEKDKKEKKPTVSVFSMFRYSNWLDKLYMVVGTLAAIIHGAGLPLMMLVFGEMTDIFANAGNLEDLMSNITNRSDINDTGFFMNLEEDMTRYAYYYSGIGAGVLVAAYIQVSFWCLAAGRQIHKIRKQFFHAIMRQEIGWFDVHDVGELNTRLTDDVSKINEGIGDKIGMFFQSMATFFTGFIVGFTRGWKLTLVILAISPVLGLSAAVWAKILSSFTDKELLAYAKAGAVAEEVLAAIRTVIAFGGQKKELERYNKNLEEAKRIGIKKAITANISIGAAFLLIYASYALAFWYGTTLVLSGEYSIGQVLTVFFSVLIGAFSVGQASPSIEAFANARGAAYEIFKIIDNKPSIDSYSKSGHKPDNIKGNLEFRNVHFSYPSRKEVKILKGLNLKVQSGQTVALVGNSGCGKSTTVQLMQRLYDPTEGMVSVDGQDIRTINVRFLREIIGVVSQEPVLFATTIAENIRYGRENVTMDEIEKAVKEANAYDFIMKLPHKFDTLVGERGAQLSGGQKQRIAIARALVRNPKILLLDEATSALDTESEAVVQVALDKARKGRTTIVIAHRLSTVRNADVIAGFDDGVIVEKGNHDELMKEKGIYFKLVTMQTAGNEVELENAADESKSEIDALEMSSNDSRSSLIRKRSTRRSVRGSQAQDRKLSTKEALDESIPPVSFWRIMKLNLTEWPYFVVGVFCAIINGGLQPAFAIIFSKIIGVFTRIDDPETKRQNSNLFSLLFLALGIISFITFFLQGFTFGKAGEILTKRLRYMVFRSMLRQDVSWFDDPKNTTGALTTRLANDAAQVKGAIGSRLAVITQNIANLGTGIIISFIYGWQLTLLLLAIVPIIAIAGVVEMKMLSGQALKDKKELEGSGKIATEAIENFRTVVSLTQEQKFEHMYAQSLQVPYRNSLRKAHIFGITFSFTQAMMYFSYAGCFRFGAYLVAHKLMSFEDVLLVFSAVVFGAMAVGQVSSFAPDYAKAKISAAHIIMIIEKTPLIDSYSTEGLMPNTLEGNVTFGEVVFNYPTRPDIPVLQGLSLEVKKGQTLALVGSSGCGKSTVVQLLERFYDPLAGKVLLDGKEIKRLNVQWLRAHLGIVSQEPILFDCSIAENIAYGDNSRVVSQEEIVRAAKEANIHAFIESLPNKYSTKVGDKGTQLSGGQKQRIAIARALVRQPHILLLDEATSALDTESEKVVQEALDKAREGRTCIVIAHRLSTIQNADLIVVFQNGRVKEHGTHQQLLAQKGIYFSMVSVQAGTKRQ
structure (smiles),measurement,setting,value
"CN1CCC(COc2cnc(-c3cccc(Cn4nc(-c5cccc(C#N)c5)ccc4=O)c3)nc2)CC1 [tepotinib, Tepotinib]",IC50 at 48 h,[1],16.5 µM
same,Effect on expression of clinically relevant ABC transporters and CYPs,[2],did not influence expression
same,IC50,CYP2C9,1.7 µM
same,Substrate affinity for ABCC1,ABCC1,No substrate affinities
same,Substrate affinity for ABCB1 (transport asymmetry),ABCB1,ABCB1 substrate
same,Substrate affinity for ABCG2,ABCG2,No substrate affinities
